{"source": "patent US20240342190A1", "about": "“METHODS FOR REDUCING ISCHEMIA-REPERFUSION INJURIES” (BioMimetix JV, LLC, priority 2023, published 2024)", "key": {"[1]": {"tested_on": "young male Wistar rats subjected to 90 min of MCAO (ischemic stroke)", "experiment": "Experiment 3: duration of BMX-001 treatment and long-term stroke outcome in young male rats", "type": "in vivo, rat", "conditions": "for MAP: 10 minutes post-stroke; for Neurologic score: median±IQR; for Body weight: p=0.37; for Total infarct: measured at 28 days, p=0.46", "method": "(§1) The rats were fasted overnight for glucose control. On the surgery day, they were anesthetized with 5% isoflurane in 30% oxygen balanced with nitrogen. The trachea was orally intubated, and both lungs were mechanically ventilated to maintain normocapnia. Isoflurane was reduced to 1.5% during the surgical procedure. A 22-gauge needle thermistor was percutaneously inserted beneath the temporalis muscle adjacent to the skull. The pericranial temperature was maintained at 37.0° C.±0.2° C. by a surface heat lamp. The tail artery was cannulated with PE 50 tubing (BD Intramedic™ Polyethylene Tubing, Sparks, MD, USA), and arterial blood pressure was continuously monitored. 50 IU of heparin was given via arterial line to prevent intra-arterial thrombosis. Arterial blood samples were collected pre, during, and after ischemia for blood gas, glucose, and hematocrit measurements.\n(§2) Ischemic stroke was induced by transiently occluding the middle cerebral artery (MCAO) as previously reported.^23,24 Briefly, a midline cervical incision was made and the right common carotid artery […] was identified. The external and internal carotid arteries were dissected. […] The internal carotid artery (ICA) was dissected distally until the origin of the pterygopalatine artery was visualized. After surgical preparation, a 10 min interval was allowed for physiologic stabilization. […] The common carotid artery was re-opened, and a timer was started as the onset of cerebral ischemia.\n(§3) After 90 min of MCAO, the filament was removed and a PE-10 tube (BD Intramedic™ Polyethylene Tubing, Sparks, MD, USA) was inserted into the ICA beyond the origin of the pterygopalatine artery. The vehicle or BMX-001 (30-50 μg/kg) solution (1 μl/g for both solutions, 250 μl for the 250 g rat) was slowly infused for 5 minutes via syringe pump. At the completion of intra-carotid infusion, the PE tube was removed and the ECA stump was permanently ligated. The tail artery catheter was removed and both the neck incision and tail incision were infiltrated with bupivacaine and closed with suture. Isoflurane was discontinued. Rats were disconnected from the ventilator when they attained spontaneous respiration and kept in a recovery cage. The tracheas were extubated after recovery of the righting reflex. They were in an O2 enriched environment (30% O2) for 1 h and then returned to the home cage.\n(§4) Post-stroke neurologic deficits were assessed at day 7 and 28 using a standardized neurological scoring system.^27,28 General status, simple motor deficit, complex motor deficit, and sensory deficit were evaluated, including the ability of walking on a beam and climbing on the vertical screen. The total score each animal received was the sum of all four individual scores (0-48, 0=normal and 48=the worst score).\n(§5) Upon the completion of functional tests, the animals were weighed, anesthetized with isoflurane, and decapitated. The brains were harvested, frozen at −20° C. in 2-methylbutane on dry ice, and stored in a −80° C. freezer. Serial quadruplicate 20-μm-thick coronal sections were cut using a Leica cryostat and mounted on the slides at 720-μm interval over the rostral-caudal extent of the brain. The sections were dried on a slide heater at 36° C., and stained with hematoxylin and eosin. A section from each […] interval was digitized with a video camera controlled by an image analyzer (MCID, the MicroComputer Imaging Device, Imaging Research Inc, St. Catharines, Ontario, Canada). […] With the observer blinded to the experimental condition, the following regions of interest (ROI) were outlined individually using an operator-controlled cursor, including non-infarcted ipsilateral cerebral cortex, non-infarcted ipsilateral subcortex, contralateral cerebral cortex, and contralateral subcortex. The area in each ROI (mm^2) was determined by automated counting of calibrated pixels and the volume (mm^3) was computed by the known interval between sections over the rostral-caudal extent of brain. […]"}, "[2]": {"tested_on": "aged female Fisher 344 rats subjected to 90 min of MCAO", "experiment": "Experiment 5: stroke outcome in aged female rats", "type": "in vivo, rat", "conditions": "for Neurologic score: median±IQR, p<0.001", "method": "as §1, §2, §3, §4, §5"}, "[3]": {"tested_on": "brain tissues and vessels (vascular endothelial wall)", "experiment": "Experiment 7: body weight and brain/vascular histology after intracarotid infusion", "conditions": "non-stroke rats; 3 days after intracarotid infusion; H&E", "method": "30 μg/kg of BMX-001 (n=4), or same amount of saline (n=4) or Solu-Medrol (n=4) was given to normal Wistar rats through the carotid artery. Rats were recovered for 3 days and perfused intracardially with normal saline followed by 10% formalin. Brains were paraffin embedded, cut, and stained with hematoxylin and eosin. Vascular histologic damage was assessed."}, "[4]": {"experiment": "Experiment 8: interaction of BMX-001 with t-PA (blood clot dissolution)", "design": "species or system rat", "conditions": "blood clot dissolution, t-PA vs t-PA plus BMX-001", "method": "Fresh arterial blood samples were collected from young male rats and distributed into 21 pre-weighed centrifuge tubes. After sitting at 37° C. for 3 hours, the blood clots were formed. The supernatant was removed from these tubes and then the tubes with blood clots were weighed. The weight of the blood clot was calculated (=the tube with blood clot-pre-weighed tube). Then, 1 ml saline, t-PA (1 mg/ml) or t-PA (1 mg/ml) plus BMX-001 (50 μg/ml) were added (n=7 for each group) and tubes placed in 37° C. dry incubator for 3 hours. The liquids were then removed from the tubes. The tubes with remaining blood clots were weighed again. The percentage of blood clot dissolved by t-PA was calculated."}, "[5]": {"conditions": "printed 'on day 28 in BMX-001 group'"}}, "note": "Entries after “also recorded” stand apart in the source; their conditions may differ."}
{"molecule": "CCCCOCC[n+]1ccccc1C1=C2C=CC3=[N+]2[Mn]24[n]5c1ccc5C(c1cccc[n+]1CCOCCCC)=C1C=CC(=[N+]12)C(c1cccc[n+]1CCOCCCC)=c1ccc([n]14)=C3c1cccc[n+]1CCOCCCC", "note": "[BMX-001, MnTnBuOE-2-PyP^5+]", "values": [{"measurement": "MAP", "setting": "[1]; group BMX-001 for 7 days", "result": "67 ± 5", "unit": "mmHg"}, {"measurement": "MAP", "setting": "[1]; group BMX-001 for 28 days", "result": "71 ± 6", "unit": "mmHg"}, {"measurement": "Neurological deficits (FIG. 3, Panel B), in words", "setting": "[1]; both day 7 and day 28 post-stroke", "result": "significantly improved"}, {"measurement": "Neurologic score", "setting": "[1]; day 7 post-stroke, 7 days of BMX-001 group", "result": "10±8"}, {"measurement": "Neurologic score", "setting": "[1]; day 7 post-stroke, 28 days of BMX-001 group", "result": "11±8"}, {"measurement": "Body weight", "setting": "[1]; day 7 post-stroke, printed 'on day 7 in BMX-001 group'", "result": "276±46", "unit": "grams"}, {"measurement": "Infarct volume (FIG. 3, Panel C), in words", "setting": "[1]; day 28", "result": "no intra-group difference"}, {"measurement": "Neurologic score", "setting": "[1]; day 28 post-stroke, 7 days of BMX-001", "result": "6±5"}, {"measurement": "Neurologic score", "setting": "[1]; day 28 post-stroke, 28 days of BMX-001", "result": "6±4"}, {"measurement": "Total infarct", "setting": "[1]; 7 days of BMX-001 group", "result": "131±66", "unit": "mm^3"}, {"measurement": "Total infarct", "setting": "[1]; [5]", "result": "112±64", "unit": "mm^3"}, {"measurement": "Body weight", "setting": "[1]; [5]", "result": "280±33", "unit": "grams"}, {"measurement": "MAP", "setting": "[2]; 10 minutes post-stroke, aged female Fisher 344 rats", "result": "90 ± 13", "unit": "mmHg"}, {"measurement": "Infarct volume (FIG. 5, Panel C), in words", "setting": "[2]; 28 days after stroke", "result": "significantly reduced infarct volume"}, {"measurement": "Reduction of infarct volume", "setting": "[2]; 28 days after stroke, vs vehicle", "result": 60, "unit": "%"}, {"measurement": "Subcortex infarct volume", "setting": "[2]; 28 days, p=0.0010", "result": "10±12", "unit": "mm^3"}, {"measurement": "Total infarct volume", "setting": "[2]; 28 days, p=0.0037 vs vehicle", "result": "31±41", "unit": "mm^3"}, {"measurement": "Cortex infarct volume", "setting": "[2]; 28 days, p=0.0122 vs vehicle", "result": "21±32", "unit": "mm^3"}, {"measurement": "Neurologic score", "setting": "[2]; day 7", "result": "4±4.75"}, {"measurement": "Neurologic functions (FIG. 5, Panel B), in words", "setting": "[2]; day 7 and 28 post-stroke", "result": "significantly attenuated neurologic deficits"}, {"measurement": "Body weight", "setting": "[2]; day 7 post-stroke", "result": "233±19", "unit": "grams"}, {"measurement": "Body weight loss from the baseline body weight", "setting": "[2]; day 7 post-stroke", "result": 8, "unit": "grams"}, {"measurement": "Neurologic score", "setting": "[2]; day 28", "result": "4±4.75"}, {"measurement": "Rats died at post-stroke day 2 due to large infarct", "setting": "[2]; of n=17", "result": "one"}, {"measurement": "Brain histology / vascular histologic damage, in words", "setting": "[3]", "result": "normal; also recorded: no histologic damage"}, {"measurement": "Interaction of BMX-001 with t-PA, in words", "setting": "[4]", "result": "does not React with t-PA"}]}
